For assay [1], the target named is T1, human BRD4 bromodomain II (Homo sapiens, UniProt O60885).
T1 construct: human BRD4 bromodomain II [based on Genbank NM_058243, residues 349-460]; host or cells: E. coli
The assay can be described thus: Bromodomain binding assay (AlphaScreen), BRD4 BDII. Conditions: AlphaScreen assay, Table C2; read-out: BRD4 BDII IC50. In a few lines: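 Tagged BRD4 BDI or BDII constructs, expressed in E. coli, competed against a K5/K8/K12/K16-acetylated biotin-H4 peptide. Proximity signal between bead pairs after room-temperature incubations gave concentration-response curves, from which IC50 was derived.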
A general note: Alpha assays give light when donor and acceptor beads are brought close together.

In assay [2] the test system is human SKM-1 acute myeloid leukemia cells. The assay can be described thus: SKM-1 antiproliferation cell-based assay (ATPlite). As to conditions: Homo sapiens, SKM-1, 96 h, SKM-1 antiproliferation assay, 4 days, Table C2. In a few lines:
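Log-phase cells in RPMI 1640/15% FBS were seeded at 34722 cells/mL and exposed for 4 days to nine-concentration DMSO serial dilutions in triplicate. Viability was read as ATP luminescence (ATPlite 1step), and IC50 values came from variable-slope non-linear regression.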
In general terms: In ATP-based viability assays light output follows the ATP content of the culture.

Structures are written as SMILES.

As to `CO[C@@H]1COC(=O)N1c1ccc(-c2cc(F)cc(-c3ccnc(N4CCNCC4)c3)c2O)cc1Cl` [Example 507, (R)-3-(3-chloro-5′-fluoro-2′-hydroxy-3′-(2-(piperazin-1-yl)pyridin-4-yl)-[1,1′-biphenyl]-4-yl)-4-methoxyoxazolidin-2-one], the IC50 in assay [1] fell in the range of 10 to 100 nM. Moreover, in assay [2], the GI50 was in the range of 300 to 3000 nM.

In the case of `Cc1cc(-c2cncc(N3CCN[C@H](C)C3)c2)c(O)c(-c2ccc(-n3ccn(C)c3=O)c(Cl)c2)c1` [Example 508, (R)-1-(3-chloro-2′-hydroxy-5′-methyl-3′-(5-(3-methylpiperazin-1-yl)pyridin-3-yl)-[1,1′-biphenyl]-4-yl)-3-methyl-1H-imidazol-2(3H)-one], in assay [1], the IC50 lay within 1 to 10 nM. In addition, in assay [2], the GI50 lay within 0.3 to 30 nM.

In the case of `Cc1cc(-c2cncc(N3CC[C@H](N)C3)c2)c(O)c(-c2ccc(-n3ccn(C)c3=O)c(Cl)c2)c1` [Example 509, (S)-1-(3′-(5-(3-aminopyrrolidin-1-yl)pyridin-3-yl)-3-chloro-2′-hydroxy-5′-methyl-[1,1′-biphenyl]-4-yl)-3-methyl-1H-imidazol-2(3H)-one], in assay [1], the IC50 lay in the range of 1 to 10 nM. The GI50 in assay [2] fell in the range of 0.3 to 30 nM.

For `Cn1ccn(-c2ccc(-c3cc(Cl)cc(-c4cncc(N5CC[C@H](N)C5)c4)c3O)cc2Cl)c1=O` [Example 510, (S)-1-(3′-(5-(3-aminopyrrolidin-1-yl)pyridin-3-yl)-3,5′-dichloro-2′-hydroxy-[1,1′-biphenyl]-4-yl)-3-methyl-1H-imidazol-2(3H)-one], the IC50 in assay [1] lay within 10 to 100 nM. Also, in assay [2], the GI50 lay in the range of 30 to 300 nM.

Consider `Cn1ccn(-c2ccc(-c3cc(F)cc(-c4ccnc(N5CC6CCC(C5)N6)c4)c3O)cc2Cl)c1=O` [Example 511, 1-(3′-(2-(3,8-diazabicyclo[3.2.1]octan-3-yl)pyridin-4-yl)-3-chloro-5′-fluoro-2′-hydroxy-[1,1′-biphenyl]-4-yl)-3-methyl-1H-imidazol-2(3H)-one], for which the IC50 in assay [1] fell in the range of 1 to 10 nM. The GI50 in assay [2] lay in the range of 0.3 to 30 nM.

`Cn1ccn(-c2ccc(-c3cc(F)cc(-c4cncc(N5CC6CCC(C5)N6)c4)c3O)cc2Cl)c1=O` [Example 512, 1-(3′-(5-(3,8-diazabicyclo[3.2.1]octan-3-yl)pyridin-3-yl)-3-chloro-5′-fluoro-2′-hydroxy-[1,1′-biphenyl]-4-yl)-3-methyl-1H-imidazol-2(3H)-one]: the IC50 in assay [1] lay within 1 to 10 nM. This compound also came in with a GI50 in assay [2] of 0.3 to 30 nM.

Take `CN1C2CCC1CN(c1cc(-c3cc(F)cc(-c4ccc(-n5ccn(C)c5=O)c(Cl)c4)c3O)ccn1)C2` [Example 513, 1-(3-chloro-5′-fluoro-2′-hydroxy-3′-(2-(8-methyl-3,8-diazabicyclo[3.2.1]octan-3-yl)pyridin-4-yl)-[1,1′-biphenyl]-4-yl)-3-methyl-1H-imidazol-2(3H)-one]: in assay [1], the IC50 was in the range of 1 to 10 nM. Also, in assay [2], the GI50 was 0.3 to 30 nM.

Take `CN1C2CCC1CN(c1cncc(-c3cc(F)cc(-c4ccc(-n5ccn(C)c5=O)c(Cl)c4)c3O)c1)C2` [Example 514, 1-(3-chloro-5′-fluoro-2′-hydroxy-3′-(5-(8-methyl-3,8-diazabicyclo[3.2.1]octan-3-yl)pyridin-3-yl)-[1,1′-biphenyl]-4-yl)-3-methyl-1H-imidazol-2(3H)-one]: in assay [1], the IC50 lay within 1 to 10 nM. The compound also showed a GI50 in assay [2] of 0.3 to 30 nM.

As to `CC(=O)Nc1cc(-c2cc(F)cc(-c3ccc(-n4ccn(C)c4=O)c(Cl)c3)c2O)cc(N2CC[C@H](N(C)C)C2)n1` [Example 515, (S)-N-(4-(3′-chloro-5-fluoro-2-hydroxy-4′-(3-methyl-2-oxo-2,3-dihydro-1H-imidazol-1-yl)-[1,1′-biphenyl]-3-yl)-6-(3-(dimethylamino)pyrrolidin-1-yl)pyridin-2-yl)acetamide], the IC50 in assay [1] fell in the range of 1 to 10 nM. Besides, the GI50 in assay [2] lay within 0.3 to 30 nM.

As to `CNC1CCN(c2cncc(-c3cc(F)cc(-c4ccc(-n5ccn(C)c5=O)c(Cl)c4)c3O)c2)CC1` [Example 516, 1-(3-chloro-5′-fluoro-2′-hydroxy-3′-(5-(4-(methylamino)piperidin-1-yl)pyridin-3-yl)-[1,1′-biphenyl]-4-yl)-3-methyl-1H-imidazol-2(3H)-one], the IC50 in assay [1] was 1 to 10 nM. The GI50 in assay [2] was in the range of 0.3 to 30 nM.

As to `Cc1cc(-c2cc(F)cc(-c3ccc(-n4ccn(C)c4=O)c(Cl)c3)c2O)cc(N2CC[C@H](N)C2)n1` [Example 517, (S)-1-(3′-(2-(3-aminopyrrolidin-1-yl)-6-methylpyridin-4-yl)-3-chloro-5′-fluoro-2′-hydroxy-[1,1′-biphenyl]-4-yl)-3-methyl-1H-imidazol-2(3H)-one], the IC50 in assay [1] is 0.01 to 1 nM. The compound further had a GI50 in assay [2] of 0.3 to 30 nM.

Take `Cc1cc(-c2cc(C)nc(N3CC[C@H](N)C3)c2)c(O)c(-c2ccc(-n3ccn(C)c3=O)c(Cl)c2)c1` [Example 518, (S)-1-(3′-(2-(3-aminopyrrolidin-1-yl)-6-methylpyridin-4-yl)-3-chloro-2′-hydroxy-5′-methyl-[1,1′-biphenyl]-4-yl)-3-methyl-1H-imidazol-2(3H)-one]: the IC50 in assay [1] was 0.01 to 1 nM. In assay [2], this compound yielded a GI50 of 0.3 to 30 nM.

Regarding `CN[C@H]1CCN(c2cc(-c3cc(F)cc(-c4ccc(-n5ccn(C)c5=O)c(Cl)c4)c3O)cc(NC(C)=O)n2)C1` [Example 519, (S)-N-(4-(3′-chloro-5-fluoro-2-hydroxy-4′-(3-methyl-2-oxo-2,3-dihydro-1H-imidazol-1-yl)-[1,1′-biphenyl]-3-yl)-6-(3-(methylamino)pyrrolidin-1-yl)pyridin-2-yl)acetamide], in assay [1], the IC50 fell in the range of 1 to 10 nM. In assay [2], the GI50 lay within 0.3 to 30 nM.

Consider `Cn1nnn(-c2ccc(-c3cc(F)cc(-c4ccnc(N5CCNCC5)c4)c3O)cc2Cl)c1=O` [Example 520, 1-(3-chloro-5′-fluoro-2′-hydroxy-3′-(2-(piperazin-1-yl)pyridin-4-yl)-[1,1′-biphenyl]-4-yl)-^4-methyl-1H-tetrazol-5(4H)-one], for which, in assay [1], the IC50 lay within 10 to 100 nM. Also, the GI50 in assay [2] was 300 to 3000 nM.

`Cn1ccn(-c2ccc(-c3cc(F)cc(-c4ccnc(N5CCN(CC(=O)O)CC5)c4)c3O)cc2Cl)c1=O` [Example 521, 2-(4-(4-(3′-chloro-5-fluoro-2-hydroxy-4′-(3-methyl-2-oxo-2,3-dihydro-1H-imidazol-1-yl)-[1,1′-biphenyl]-3-yl)pyridin-2-yl)piperazin-1-yl)acetic acid]: in assay [1], the IC50 lay in the range of 1 to 10 nM. This compound also displayed a GI50 in assay [2] of 30 to 300 nM.

In the case of `C[C@@H]1CN(c2cc(-c3cc(F)cc(-c4ccc(-n5ccn(C)c5=O)c(Cl)c4)c3O)cc3[nH]cnc23)CCN1` [Example 522, (R)-1-(3-chloro-5′-fluoro-2′-hydroxy-3′-(4-(3-methylpiperazin-1-yl)-1H-benzo[d]imidazol-6-yl)-[1,1′-biphenyl]-4-yl)-3-methyl-1H-imidazol-2(3H)-one], the IC50 in assay [1] fell in the range of 1 to 10 nM. The compound also showed a GI50 in assay [2] of 0.3 to 30 nM.

As for `CCC(=O)Nc1cc(-c2cc(F)cc(-c3ccc(-n4ccn(C)c4=O)c(Cl)c3)c2O)cc(N2CC[C@H](N)C2)n1` [Example 523, (S)-N-(6-(3-aminopyrrolidin-1-yl)-4-(3′-chloro-5-fluoro-2-hydroxy-4′-(3-methyl-2-oxo-2,3-dihydro-1H-imidazol-1-yl)-[1,1′-biphenyl]-3-yl)pyridin-2-yl)propionamide], in assay [1], the half-maximal inhibitory concentration (IC50) was 1 to 10 nM. This compound also had a GI50 in assay [2] of 0.3 to 30 nM.

With `CC(C)C(=O)Nc1cc(-c2cc(F)cc(-c3ccc(-n4ccn(C)c4=O)c(Cl)c3)c2O)cc(N2CC[C@H](N)C2)n1` [Example 524, (S)-N-(6-(3-aminopyrrolidin-1-yl)-4-(3′-chloro-5-fluoro-2-hydroxy-4′-(3-methyl-2-oxo-2,3-dihydro-1H-imidazol-1-yl)-[1,1′-biphenyl]-3-yl)pyridin-2-yl)isobutyramide], the IC50 in assay [1] is 1 to 10 nM. In assay [2], this compound showed a GI50 of 0.3 to 30 nM.

With `Cn1ccn(-c2ccc(-c3cc(F)cc(-c4cc(NC(=O)C5CC5)nc(N5CC[C@H](N)C5)c4)c3O)cc2Cl)c1=O` [Example 525, (S)-N-(6-(3-aminopyrrolidin-1-yl)-4-(3′-chloro-5-fluoro-2-hydroxy-4′-(3-methyl-2-oxo-2,3-dihydro-1H-imidazol-1-yl)-[1,1′-biphenyl]-3-yl)pyridin-2-yl)cyclopropanecarboxamide], in assay [1], the half-maximal inhibitory concentration (IC50) was 1 to 10 nM. This compound also returned a GI50 in assay [2] of 0.3 to 30 nM.

As to `Cn1ccn(-c2ccc(-c3cc(F)cc(-c4cc(N5CCNCC5)c5cn[nH]c5c4)c3O)cc2Cl)c1=O` [Example 526, 1-(3-chloro-5′-fluoro-2′-hydroxy-3′-(4-(piperazin-1-yl)-1H-indazol-6-yl)-[1,1′-biphenyl]-4-yl)-3-methyl-1H-imidazol-2(3H)-one], the IC50 in assay [1] was 1 to 10 nM. For the same compound, in assay [2], the GI50 is 0.3 to 30 nM.

On to `Cn1ccn(-c2ccc(-c3cc(F)cc(-c4ccnc(N5CCN(CCCF)CC5)c4)c3O)cc2Cl)c1=O` [Example 527, 1-(3-chloro-5′-fluoro-3′-(2-(4-(3-fluoropropyl)piperazin-1-yl)pyridin-4-yl)-2′-hydroxy-[1,1′-biphenyl]-4-yl)-3-methyl-1H-imidazol-2(3H)-one], for which, in assay [1], the IC50 is 0.01 to 1 nM. In assay [2], this compound had a 50% growth inhibitory concentration (GI50) of 0.3 to 30 nM.

Take `Cn1ccn(-c2ccc(-c3cc(F)cc(-c4ccnc(N5CCN(C6COC6)CC5)c4)c3O)cc2Cl)c1=O` [Example 528, 1-(3-chloro-5′-fluoro-2′-hydroxy-3′-(2-(4-(oxetan-3-yl)piperazin-1-yl)pyridin-4-yl)-[1,1′-biphenyl]-4-yl)-3-methyl-1H-imidazol-2(3H)-one]: the IC50 in assay [1] lay within 1 to 10 nM. This compound also yielded a GI50 in assay [2] of 0.3 to 30 nM.

Usually IC50 stands for the midpoint of a concentration-inhibition curve. By GI50 is commonly meant the concentration giving 50% growth inhibition.

(Values after US20250179059A1 (The Regents of the University of California, priority 2021, published 2025).)
